What was measured:
[1] = molecular target: T1, vanilloid receptor 1 (VR1/TRPV1 receptor) (Homo sapiens, UniProt Q8NER1); assay: FLIPR Ca2+ influx assay with CHO K1 cells transfected with the human VR1 gene, capsaicin stimulus; assay type: cell-based; details: Cap = capsaicin (100 nM), Ki from IC50 by Cheng-Prusoff, read-out: Ki (human being) [nM] Cap
T1 construct: expressed in transfected cells; host or cells: CHO K1 cells (ECACC), stably transfected
Method: Furthermore, preference may be given to compounds according to the invention of general formula (I) that cause a 50 percent displacement of capsaicin, which is present at a concentration of 100 nM, in a FLIPR assay with CHO K1 cells which were transfected with the human VR1 gene at a concentration of less than 2,000 nM, preferably less than 1,000 nM, particularly preferably less than 300 nM, most particularly preferably less than 100 nM, even more preferably less than 75 nM, additionally preferably less than 50 nM, most preferably less than 10 nM. In the process, the Ca^2+ influx is quantified in the FLIPR assay with the aid of a Ca^2+-sensitive dye (type Fluo-4, Molecular Probes Europe BV, Leiden, the Netherlands) in a fluorescent imaging plate reader (FLIPR, Molecular Devices, Sunnyvale, USA), as described hereinafter. The agonistic or antagonistic effect of the substances to be tested on the vanilloid receptor 1 (VR1) can also be determined using the following assay. In this assay, the influx of Ca^2+ through the channel is quantified with the aid of a Ca^2+-sensitive dye (type Fluo-4, Molecular Probes Europe BV, Leiden, the Netherlands) in a fluorescent imaging plate reader (FLIPR, Molecular Devices, Sunnyvale, USA). Chinese hamster ovary cells (CHO K1 cells, European Collection of Cell Cultures (ECACC) United Kingdom) are stably transfected with the VR1 gene. For functional testing, these cells are plated out on poly-D-lysine-coated black 96-well plates having a clear base (BD Biosciences, Heidelberg, Germany) at a density of 25,000 cells/well. The cells are incubated overnight at 37° C. and 5% CO2 in a culture medium (Ham's F12 nutrient mixture, 10% by volume of FCS (foetal calf serum), 18 μg/ml of L-proline). The next day the cells are incubated with Fluo-4 (Fluo-4 2 μM, 0.01% by volume of Pluronic F127, Molecular Probes in HBSS (Hank's buffered saline solution), Gibco Invitrogen GmbH, Karlsruhe, Germany) for 30 minutes at 37° C. Subsequently, the plates are washed three times with HBSS buffer and after further incubation for 15 minutes at RT used for Ca^2+ measurement in a FLIPR assay. The Ca^2+-dependent fluorescence is measured before and after the addition of the substances to be tested (λex wavelength=488 nm, λem=540 nm). Quantification is carried out by measuring the highest fluorescence intensity (FC, fluorescence counts) over time. The FLIPR protocol consists of 2 substance additions. First the compounds to be tested (10 μM) are pipetted onto the cells and the Ca^2+ influx is compared with the control (capsaicin 10 μM) (% activation based on the Ca^2+ signal after the addition of 10 μM of capsaicin). After 5 minutes' incubation, 100 nM of capsaicin are applied and the Ca^2+ influx is also determined. Desensitising agonists and antagonists led to suppression of the Ca^2+ influx. The % inhibition is calculated compared to the maximum achievable inhibition with 10 μM of capsaicin. Starting from the percentage displacement caused by different concentrations of the compounds to be tested of general formula I, IC50 inhibitory concentrations which cause a 50-percent displacement of capsaicin were calculated. K, values for the test substances were obtained by conversion by means of the Cheng-Prusoff equation (Cheng, Prusoff; Biochem. Pharmacol. 22, 3099-3108, 1973). The affinity of the compounds according to the invention for the vanilloid receptor 1 (VR1/TRPV1 receptor) was determined as described hereinbefore (pharmacological methods I and II respectively). The compounds according to the invention of the above-indicated formula (I) display outstanding affinity to the VR1/TRPV1 receptor (Table 1.).

[2] = molecular target: T2, vanilloid receptor 1 (VR1/TRPV1 receptor) (Mus musculus, UniProt Q704Y3); assay: FLIPR Ca2+ influx assay on vanilloid receptor 1, capsaicin stimulus (mouse); assay type: cell-based; details: Cap = capsaicin, Ki from IC50 by Cheng-Prusoff
T2 construct: expressed in transfected cells; host or cells: CHO K1 cells (inferred: method II; method I is described for rat DRG neurons only)
T2 sequence (Q704Y3 whole entry): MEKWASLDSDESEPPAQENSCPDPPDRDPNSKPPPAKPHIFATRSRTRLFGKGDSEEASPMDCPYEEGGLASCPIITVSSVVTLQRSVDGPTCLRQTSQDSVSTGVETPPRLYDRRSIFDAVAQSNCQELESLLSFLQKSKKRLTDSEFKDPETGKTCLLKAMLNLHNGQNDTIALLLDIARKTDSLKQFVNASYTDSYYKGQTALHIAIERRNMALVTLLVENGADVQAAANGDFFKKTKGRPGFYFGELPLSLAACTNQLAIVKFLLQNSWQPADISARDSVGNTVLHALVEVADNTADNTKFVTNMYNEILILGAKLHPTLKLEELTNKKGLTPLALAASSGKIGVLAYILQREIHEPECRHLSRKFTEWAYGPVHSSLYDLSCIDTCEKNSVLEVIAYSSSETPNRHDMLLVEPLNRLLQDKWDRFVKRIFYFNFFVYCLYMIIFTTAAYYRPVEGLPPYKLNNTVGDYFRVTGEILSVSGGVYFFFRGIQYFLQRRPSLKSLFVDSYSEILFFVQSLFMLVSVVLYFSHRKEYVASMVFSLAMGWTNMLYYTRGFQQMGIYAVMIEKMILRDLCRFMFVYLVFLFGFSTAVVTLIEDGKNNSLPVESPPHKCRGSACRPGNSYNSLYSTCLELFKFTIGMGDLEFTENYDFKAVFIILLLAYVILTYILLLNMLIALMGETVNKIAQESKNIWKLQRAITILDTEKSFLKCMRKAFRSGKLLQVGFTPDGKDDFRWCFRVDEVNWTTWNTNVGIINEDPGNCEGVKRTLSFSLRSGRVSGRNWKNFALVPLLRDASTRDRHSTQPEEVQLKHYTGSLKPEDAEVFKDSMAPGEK
Source text: The agonistic or antagonistic effect of the substances to be tested on the vanilloid receptor 1 (VR1) can also be determined using the following assay. In this assay, the influx of Ca^2+ through the channel is quantified with the aid of a Ca^2+-sensitive dye (type Fluo-4, Molecular Probes Europe BV, Leiden, the Netherlands) in a fluorescent imaging plate reader (FLIPR, Molecular Devices, Sunnyvale, USA).
Chinese hamster ovary cells (CHO K1 cells, European Collection of Cell Cultures (ECACC) United Kingdom) are stably transfected with the VR1 gene. […] The Ca^2+-dependent fluorescence is measured before and after the addition of the substances to be tested (λex wavelength=488 nm, λem=540 nm). Quantification is carried out by measuring the highest fluorescence intensity (FC, fluorescence counts) over time.
The FLIPR protocol consists of 2 substance additions. […] After 5 minutes' incubation, 100 nM of capsaicin are applied and the Ca^2+ influx is also determined. […]
Starting from the percentage displacement caused by different concentrations of the compounds to be tested of general formula I, IC50 inhibitory concentrations which cause a 50-percent displacement of capsaicin were calculated. […]
The affinity of the compounds according to the invention for the vanilloid receptor 1 (VR1/TRPV1 receptor) was determined as described hereinbefore (pharmacological methods I and II respectively). […]

T1 sequence (Q8NER1 whole entry): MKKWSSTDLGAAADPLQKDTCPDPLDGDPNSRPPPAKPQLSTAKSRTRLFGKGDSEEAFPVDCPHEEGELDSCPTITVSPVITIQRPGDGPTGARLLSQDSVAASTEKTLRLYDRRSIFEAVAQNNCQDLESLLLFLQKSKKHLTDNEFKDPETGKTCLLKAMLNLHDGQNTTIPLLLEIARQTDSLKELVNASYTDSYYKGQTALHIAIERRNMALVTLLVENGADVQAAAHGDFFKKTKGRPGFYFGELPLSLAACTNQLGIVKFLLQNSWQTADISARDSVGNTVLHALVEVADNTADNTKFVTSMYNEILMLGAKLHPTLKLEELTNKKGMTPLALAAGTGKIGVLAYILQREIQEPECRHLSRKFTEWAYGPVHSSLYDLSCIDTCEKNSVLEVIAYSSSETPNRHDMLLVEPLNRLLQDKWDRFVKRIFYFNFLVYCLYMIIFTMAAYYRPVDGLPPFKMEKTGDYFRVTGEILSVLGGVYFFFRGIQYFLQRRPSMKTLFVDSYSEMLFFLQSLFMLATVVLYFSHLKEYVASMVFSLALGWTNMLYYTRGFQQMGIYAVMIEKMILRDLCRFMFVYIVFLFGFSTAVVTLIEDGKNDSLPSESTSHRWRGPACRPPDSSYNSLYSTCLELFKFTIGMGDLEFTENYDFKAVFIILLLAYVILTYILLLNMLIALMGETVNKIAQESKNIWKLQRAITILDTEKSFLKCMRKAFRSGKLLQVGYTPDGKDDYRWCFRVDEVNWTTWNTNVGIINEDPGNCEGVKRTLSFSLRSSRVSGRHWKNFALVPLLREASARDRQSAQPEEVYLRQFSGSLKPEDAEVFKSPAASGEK

## CC(C(=O)NCc1cc(C(F)(F)F)nn1-c1cccc(Cl)c1)c1cn(C)c2ccc(O)cc12 (centres unmarked) [Example 10, N-((1-(3-chlorophenyl)-3-(trifluoromethyl)-1H-pyrazol-5-yl)methyl)-2-(5-hydroxy-1-methyl-1H-indol-3-yl)propanamide]
[1]
  Ki: 0.4 nM
[2]
  Ki: 4.8 nM

— patent US20120115903A1, “Substituted Heteroaromatic Carboxamide and Urea Compounds as Vanilloid Receptor Ligands” (Gruenenthal GmbH, priority 2010, published 2012)
